Laboratory results as given in article PMC5573538, “Contrasting effects of phosphatidylinositol 4,5‐bisphosphate on cloned TMEM16A and TMEM16B channels” (British Journal of Pharmacology, 2017).

Legend:
TMEM16A = target: T1, TMEM16A (Mus musculus, UniProt Q8BHY3); test: inside-out patch clamp, excised patches from HEK-293T cells, +[…] mV, […] Ca2+ (current activation); format: biochemical; conditions: read-out: K a
T1 construct: gene Ano1; mouse TMEM16A isoform (ac), expressed in HEK-293T cells
T1 sequence (Q8BHY3 1-960): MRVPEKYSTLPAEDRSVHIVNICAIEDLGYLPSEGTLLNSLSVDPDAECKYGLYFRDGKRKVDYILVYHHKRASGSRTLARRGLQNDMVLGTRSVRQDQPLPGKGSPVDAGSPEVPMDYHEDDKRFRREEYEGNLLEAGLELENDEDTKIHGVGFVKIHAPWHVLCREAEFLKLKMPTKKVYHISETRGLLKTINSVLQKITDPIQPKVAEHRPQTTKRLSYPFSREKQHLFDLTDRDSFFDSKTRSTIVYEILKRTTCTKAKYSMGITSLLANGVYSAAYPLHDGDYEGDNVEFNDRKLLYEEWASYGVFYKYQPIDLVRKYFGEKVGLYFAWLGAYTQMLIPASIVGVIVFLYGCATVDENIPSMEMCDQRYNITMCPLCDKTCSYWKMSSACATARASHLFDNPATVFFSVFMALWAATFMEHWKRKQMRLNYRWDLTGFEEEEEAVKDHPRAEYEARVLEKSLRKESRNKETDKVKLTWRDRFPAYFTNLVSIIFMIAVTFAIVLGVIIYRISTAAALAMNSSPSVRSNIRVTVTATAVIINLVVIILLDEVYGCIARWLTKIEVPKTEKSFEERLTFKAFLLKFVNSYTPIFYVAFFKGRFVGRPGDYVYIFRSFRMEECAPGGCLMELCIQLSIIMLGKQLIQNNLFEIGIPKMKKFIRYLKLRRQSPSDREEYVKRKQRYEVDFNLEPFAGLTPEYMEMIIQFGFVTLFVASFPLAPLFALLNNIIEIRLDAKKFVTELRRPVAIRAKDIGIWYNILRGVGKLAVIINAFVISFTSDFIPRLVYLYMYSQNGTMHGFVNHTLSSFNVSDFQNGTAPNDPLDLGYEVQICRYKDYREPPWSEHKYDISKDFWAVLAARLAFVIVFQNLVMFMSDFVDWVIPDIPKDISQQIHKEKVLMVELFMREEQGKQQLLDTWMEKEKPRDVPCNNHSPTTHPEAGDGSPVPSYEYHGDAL

TMEM16B = target: T2, TMEM16B (Mus musculus, UniProt Q8CFW1); test: inside-out patch clamp, excised patches from HEK-293T cells, +[…] mV, […] Ca2+ (partial current inhibition); format: biochemical; conditions: read-out: K i
T2 construct: gene Ano2; mouse TMEM16B isoform A, expressed in HEK-293T cells
T2 sequence (Q8CFW1 1-1002): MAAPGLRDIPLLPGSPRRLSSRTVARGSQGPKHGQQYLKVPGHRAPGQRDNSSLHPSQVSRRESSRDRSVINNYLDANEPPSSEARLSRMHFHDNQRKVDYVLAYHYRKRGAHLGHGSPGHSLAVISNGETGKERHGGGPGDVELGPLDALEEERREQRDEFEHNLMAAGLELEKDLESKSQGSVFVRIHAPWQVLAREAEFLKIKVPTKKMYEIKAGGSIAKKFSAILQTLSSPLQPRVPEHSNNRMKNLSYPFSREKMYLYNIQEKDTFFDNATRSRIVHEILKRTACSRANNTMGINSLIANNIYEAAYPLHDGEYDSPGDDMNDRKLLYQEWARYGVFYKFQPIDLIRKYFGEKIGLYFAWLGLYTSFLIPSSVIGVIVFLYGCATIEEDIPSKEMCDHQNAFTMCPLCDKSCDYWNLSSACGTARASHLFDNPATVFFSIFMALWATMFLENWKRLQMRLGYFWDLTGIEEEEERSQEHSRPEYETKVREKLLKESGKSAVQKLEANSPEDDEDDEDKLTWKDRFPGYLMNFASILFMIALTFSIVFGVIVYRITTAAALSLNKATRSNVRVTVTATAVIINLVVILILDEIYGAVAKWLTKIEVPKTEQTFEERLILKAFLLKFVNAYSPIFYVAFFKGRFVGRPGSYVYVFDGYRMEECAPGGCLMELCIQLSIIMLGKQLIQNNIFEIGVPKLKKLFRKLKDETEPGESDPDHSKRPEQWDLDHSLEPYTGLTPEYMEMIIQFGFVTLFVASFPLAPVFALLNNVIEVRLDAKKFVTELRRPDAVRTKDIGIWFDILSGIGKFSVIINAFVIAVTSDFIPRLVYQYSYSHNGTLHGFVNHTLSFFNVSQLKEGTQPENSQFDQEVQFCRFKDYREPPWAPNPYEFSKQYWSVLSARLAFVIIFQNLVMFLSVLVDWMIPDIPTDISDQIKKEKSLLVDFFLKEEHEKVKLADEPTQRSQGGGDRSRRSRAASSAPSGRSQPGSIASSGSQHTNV

EC50 (TMEM16A): 53 ± 9 µM
IC50 (TMEM16B): 46 ± 2 µM
SMILES: CCCCCCCC(=O)OC[C@H](COP(=O)(O)O[C@@H]1[C@H](O)[C@H](O)[C@@H](OP(=O)(O)O)[C@H](OP(=O)(O)O)[C@H]1O)OC(=O)CCCCCCC [diC8‐PIP2]
